Consider six compounds from PMC4886613 (Journal of natural products, 2009).

For orientation: IC50 means the concentration at which inhibition is half-maximal.

Type in all cases: cell-based
Experiment [1] has as its system culture of Leishmania donovani. In words: in vitro antileishmanial activity. The conditions noted are these: in words.
Another experiment relates to Plasmodium falciparum. The experiment in a line: antimalarial activity. The conditions noted are these: in words; clone not specified.
For experiment [2], the system named is Candida albicans ATCC 90028. The experiment in a line: in vitro antifungal activity, Candida albicans. The conditions noted are these: ATCC90028, read-out: antifungal C. albicans IC50.
Experiment [3] concerns Plasmodium falciparum (D6 clone). In words: in vitro antimalarial activity, D6 clone. The conditions noted are these: D6, read-out: antimalarial P. falciparum D6 (IC50).
For a further experiment, the system named is P. falciparum (W2 clone). The experiment in a line: microbe, parasite or virus in culture. To be noted: Plasmodium falciparum, W2, read-out: antimalarial P. falciparum W2 (IC50).

Turning to `CCCCCc1cc(O)c2c(c1OC(C)=O)OC(C)(CCC=C(C)C)C=C2` (racemic) [Compound 1, (±)-4-acetoxycannabichromene], the antileishmanial activity entry in experiment [1] was “moderate antileishmanial activity”. Moreover, the antimalarial activities entry in the experiment on Plasmodium falciparum is recorded as “mild antimalarial activities”.
With `C[C@@H]1[C@H](O)[C@@H](C)/C=C/C=C/C=C/C=C/C=C/C=C/C=C/[C@H](O[C@@H]2O[C@H](C)[C@@H](O)[C@H](N)[C@@H]2O)C[C@@H]2O[C@](O)(C[C@@H](O)C[C@@H](O)[C@H](O)CC[C@@H](O)C[C@@H](O)CC(=O)O[C@H]1C)C[C@H](O)[C@H]2C(=O)O` [amphotericin B], the IC50 in experiment [2] amounted to 300 nM.
In the case of `CCN(CC)CCCC(C)Nc1ccnc2cc(Cl)ccc12` (stereo not drawn) [chloroquine], the IC50 was 100 nM in experiment [3] and 500 nM in the experiment with P. falciparum (W2 clone).
With `CCCCCc1cc(O)c(C/C=C(\C)CCC=C(C)C)c(OC(C)=O)c1O` [Compound 5, 5-acetyl-4-hydroxycannabigerol], the antileishmanial activity result in experiment [1] was “strong antileishmanial activity”. Moreover, the antimalarial activities entry in the experiment on Plasmodium falciparum is listed as “mild antimalarial activities”.
For `CCCCCc1c(C/C=C(\C)CCC=C(C)C)c(O)cc(O)c1OC(C)=O` [Compound 6, 4-acetoxy-2-geranyl-5-hydroxy-3-n-pentylphenol], the antileishmanial activity result in experiment [1] is given as “moderate antileishmanial activity”.
On to `C=C(C)C(O)CCC1(C)C=Cc2c(O)cc(CCCCC)cc2O1` (racemic) [Compound 2, (±)-3″-hydroxy-Δ^(4″,5″)-cannabichromene], for which, in experiment [1], the antileishmanial activity result is “moderate antileishmanial activity”.
